Experimental findings from patent publication US11447503B2, “Pyridine carbamates and their use as GLUN2B receptor modulators” (JANSSEN PHARMACEUTICA NV, priority 2019, dated 2022) are described below.

One may read the IC50 as the midpoint of a concentration-inhibition curve.

The target of the test is human GluN1/GluN2B NMDA receptors (Homo sapiens, UniProt Q05586+Q13224). The test is described as follows: Cell-based calcium flux (FLIPR) assay on cloned human GluN1/GluN2B ion channels expressed in mammalian cells. The following applies: standard assay; glutamate ~EC40, 10 μM glycine; stable Tet-On cell line. As for the experimental part:
5.3. Biological Assays: Effect of Compounds of Formula (I) on Cloned Human GluN1/GluN2B Ion Channels Expressed in Mammalian Cells
NMDA receptors are ion channels that are highly permeable to Ca^2+ ions, rendering it possible to monitor NMDA receptor function using cell-based calcium flux assay. In this assay, co-agonists glutamate and glycine are added to cells heterologously expressing human GluN1/GluN2B NMDA receptors to initiate cellular Ca^2+ influx. The time course of the changes in intracellular calcium is measured using a fluorescent dye and a FLIPR (Fluorometric Imaging Plate Reader) device.
Twenty four hours before measurements, the expression of the NMDA receptors in the stable cell line is induced with Tet-On inducible system in the presence of a non-selective NMDA receptor blocker. On the day of the experiment, cell culture media is carefully washed and the cells are loaded with Calcium 5 Dye Kit (Molecular Devices) in dye loading buffer containing 137 mM NaCl, 4 mM KCl, 2 mM CaCl2, 0.5 mM MgCl2 (standard assay) or 1.5 mM MgCl2 (HTS assay), 10 mM HEPES and 5 mM D-glucose; pH 7.4. After 1 h incubation at the room temperature, the dye is washed away with the assay buffer (137 mM NaCl (standard assay) or 150 mM (HTS assay), 4 mM KCl (standard assay) or 3 mM (HTS assay), 2 mM CaCl2, 0.01 mM EDTA, 10 mM HEPES and 5 mM D-glucose; pH 7.4) In the FLIPR TETRA reader, various concentrations of the test compounds are added to the cells for 5 min while fluorescence is monitored to detect potential agonist activity. Next, co-agonists, glutamate and glycine are added for another 5 minutes. The concentration of glutamate corresponding to ˜EC40 (standard assay) or EC40 (HTS assay) is used to maximize the assay's signal window and ability to detect NMDA receptor antagonists and negative allosteric modulators. A saturating concentration (10 μM) of glycine is also present in the assay. A non-selective NMDA receptor antagonist, (+)MK-801 is used as a positive control for antagonist activity. The fluorescent signal in the presence of test compounds is quantified and normalized to the signal defined by the appropriate control wells.

Sequence of human GluN1/GluN2B NMDA receptors (Q13224 27-1484, other chains not shown): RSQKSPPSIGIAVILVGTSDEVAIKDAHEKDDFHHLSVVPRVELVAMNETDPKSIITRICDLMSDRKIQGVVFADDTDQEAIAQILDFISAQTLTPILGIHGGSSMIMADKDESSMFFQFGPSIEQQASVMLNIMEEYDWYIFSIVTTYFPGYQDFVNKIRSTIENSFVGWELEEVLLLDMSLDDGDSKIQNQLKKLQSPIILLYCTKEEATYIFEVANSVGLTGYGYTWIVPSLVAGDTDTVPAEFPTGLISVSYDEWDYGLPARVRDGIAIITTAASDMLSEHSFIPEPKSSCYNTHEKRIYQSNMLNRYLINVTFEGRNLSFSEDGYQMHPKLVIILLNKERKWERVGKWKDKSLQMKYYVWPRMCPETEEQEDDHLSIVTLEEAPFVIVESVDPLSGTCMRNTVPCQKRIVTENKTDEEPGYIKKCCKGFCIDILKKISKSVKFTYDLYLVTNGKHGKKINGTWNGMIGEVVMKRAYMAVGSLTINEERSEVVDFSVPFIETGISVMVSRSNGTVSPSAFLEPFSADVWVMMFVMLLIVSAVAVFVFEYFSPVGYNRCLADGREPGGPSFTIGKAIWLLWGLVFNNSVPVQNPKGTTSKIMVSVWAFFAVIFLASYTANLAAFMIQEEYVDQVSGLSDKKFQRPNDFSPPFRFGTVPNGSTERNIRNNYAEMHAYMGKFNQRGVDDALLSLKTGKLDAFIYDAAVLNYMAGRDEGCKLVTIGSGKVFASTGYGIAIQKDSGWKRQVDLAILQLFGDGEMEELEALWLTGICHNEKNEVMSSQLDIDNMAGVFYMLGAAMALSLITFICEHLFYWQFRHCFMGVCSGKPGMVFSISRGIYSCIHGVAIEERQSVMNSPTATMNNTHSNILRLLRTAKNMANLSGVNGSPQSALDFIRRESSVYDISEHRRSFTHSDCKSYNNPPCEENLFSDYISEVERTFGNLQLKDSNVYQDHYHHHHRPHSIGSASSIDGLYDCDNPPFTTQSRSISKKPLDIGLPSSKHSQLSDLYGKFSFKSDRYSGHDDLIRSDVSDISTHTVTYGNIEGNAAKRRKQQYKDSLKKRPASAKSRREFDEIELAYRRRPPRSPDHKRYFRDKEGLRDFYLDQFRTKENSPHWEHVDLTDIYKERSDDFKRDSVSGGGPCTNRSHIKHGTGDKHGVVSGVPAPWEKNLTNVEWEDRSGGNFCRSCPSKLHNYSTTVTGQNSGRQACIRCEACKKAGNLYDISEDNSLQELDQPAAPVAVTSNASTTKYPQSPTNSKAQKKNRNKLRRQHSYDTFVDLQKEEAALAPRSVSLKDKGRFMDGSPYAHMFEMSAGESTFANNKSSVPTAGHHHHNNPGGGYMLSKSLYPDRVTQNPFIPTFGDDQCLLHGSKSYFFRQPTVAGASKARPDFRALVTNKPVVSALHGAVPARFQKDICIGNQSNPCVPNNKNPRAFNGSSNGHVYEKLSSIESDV

As for `CC1COC(=O)N1Cc1cncc(-c2ccc(F)c(OC(F)F)c2)c1` (racemic) [Example 5, (R/S)-3-[[5-[3-(Difluoromethoxy)-4-fluoro-phenyl]-3-pyridyl]methyl]-4-methyl-oxazolidin-2-one], the IC50 amounted to 20 nM. Turning to `CC1CN(Cc2cncc(-c3ccc(F)c(OC(F)F)c3)c2)C(=O)O1` (racemic) [Example 6, (R/S)-3-[[5-[3-(Difluoromethoxy)-4-fluoro-phenyl]-3-pyridyl]methyl]-5-methyl-oxazolidin-2-one], the IC50 came to 15 nM.

As to `CC(C)C1CN(Cc2cncc(-c3ccc(F)c(OC(F)F)c3)c2)C(=O)O1` (racemic) [Example 14, (R/S)-3-[[5-[3-(Difluoromethoxy)-4-fluoro-phenyl]-3-pyridyl]methyl]-5-isopropyl-oxazolidin-2-one], the IC50 came out at 97 nM.

For `CC1COC(=O)N1Cc1cncc(-c2ccc(F)c(C(F)F)c2)c1` (racemic) [Example 25, (R/S)-3-[[5-[3-(Difluoromethyl)-4-fluoro-phenyl]-3-pyridyl]methyl]-4-methyl-oxazolidin-2-one], the 50% inhibitory concentration (IC50) came to 31 nM. As for `CC1CN(Cc2cncc(-c3ccc(F)c(C(F)F)c3)c2)C(=O)O1` (racemic) [Example 26, (R/S)-3-[[5-[3-(Difluoromethyl)-4-fluoro-phenyl]-3-pyridyl]methyl]-5-methyl-oxazolidin-2-one], the IC50 amounted to 28 nM. `CC(C)C1CN(Cc2cncc(-c3ccc(F)c(C(F)F)c3)c2)C(=O)O1` (racemic) [Example 35, (R/S)-3-[[5-[3-(Difluoromethyl)-4-fluoro-phenyl]-3-pyridyl]methyl]-5-isopropyl-oxazolidin-2-one]: the IC50 was 29 nM. In the case of `CC(c1cncc(-c2ccc(F)c(C(F)F)c2)c1)N1CCCOC1=O` (racemic) [Example 61, (R/S)-3-[1-[5-[3-(difluoromethyl)-4-fluoro-phenyl]-3-pyridyl]ethyl]-1,3-oxazinan-2-one], the IC50 came to 323 nM. Next, `Cc1ncc(-c2ccc(F)c(OC(F)F)c2)cc1CN1CC(C)OC1=O` (racemic) [Example 80, (R/S)-3-[[5-[3-(Difluoromethoxy)-4-fluoro-phenyl]-2-methyl-3-pyridyl]methyl]-5-methyl-oxazolidin-2-one]: 22 nM; `Cc1ncc(-c2ccc(F)c(OC(F)F)c2)cc1CN1C(=O)OCC1C` (racemic) [Example 81, (R/S)-3-[[5-[3-(Difluoromethoxy)-4-fluoro-phenyl]-2-methyl-3-pyridyl]methyl]-4-methyl-oxazolidin-2-one]: 79 nM. Next, `Cc1ncc(-c2ccc(F)c(C(F)F)c2)cc1CN1CC(C)OC1=O` (racemic) [Example 94, (R/S)-3-[[5-[3-(Difluoromethyl)-4-fluoro-phenyl]-2-methyl-3-pyridyl]methyl]-5-methyl-oxazolidin-2-one]: 21 nM; `Cc1ncc(-c2ccc(F)c(C(F)F)c2)cc1CN1C(=O)OCC1C` (racemic) [Example 95, (R/S)-3-[[5-[3-(difluoromethyl)-4-fluoro-phenyl]-2-methyl-3-pyridyl]methyl]-4-methyl-oxazolidin-2-one]: 113 nM. Next, `CC1CN(Cc2cncc(-c3ccc(F)c(OC(F)F)c3)c2)C(=O)O1` (single isomer, unassigned) [Example 7, (S*)-3-[[5-[3-(Difluoromethoxy)-4-fluoro-phenyl]-3-pyridyl]methyl]-5-methyl-oxazolidin-2-one]: 17 nM; `CC1CN(Cc2cncc(-c3ccc(F)c(OC(F)F)c3)c2)C(=O)O1` (single isomer, unassigned) [Example 8, (R*)-3-[[5-[3-(Difluoromethoxy)-4-fluoro-phenyl]-3-pyridyl]methyl]-5-methyl-oxazolidin-2-one]: 11 nM; `CC(C)C1CN(Cc2cncc(-c3ccc(F)c(OC(F)F)c3)c2)C(=O)O1` (single isomer, unassigned) [Example 15, (R*)-3-[[5-[3-(Difluoromethoxy)-4-fluoro-phenyl]-3-pyridyl]methyl]-5-isopropyl-oxazolidin-2-one]: 45 nM.

For `CC(C)C1CN(Cc2cncc(-c3ccc(F)c(OC(F)F)c3)c2)C(=O)O1` (single isomer, unassigned) [Example 16, (S*)-3-[[5-[3-(Difluoromethoxy)-4-fluoro-phenyl]-3-pyridyl]methyl]-5-isopropyl-oxazolidin-2-one], the IC50 was found to be 52 nM. The value for `O=C1OC(CN2CCOCC2)CN1Cc1cncc(-c2ccc(F)c(OC(F)F)c2)c1` (single isomer, unassigned) [Example 18, (R*)-3-[[5-[3-(Difluoromethoxy)-4-fluoro-phenyl]-3-pyridyl]methyl]-5-(morpholinomethyl)oxazolidin-2-one] was 751 nM; that for `O=C1OC(CN2CCOCC2)CN1Cc1cncc(-c2ccc(F)c(OC(F)F)c2)c1` (single isomer, unassigned) [Example 19, (S*)-3-[[5-[3-(Difluoromethoxy)-4-fluoro-phenyl]-3-pyridyl]methyl]-5-(morpholinomethyl)oxazolidin-2-one] was 1350 nM; that for `C[C@@H]1CN(Cc2cncc(-c3ccc(F)c(C(F)F)c3)c2)C(=O)O1` (single isomer, unassigned) [Example 28, (R*)-3-[[5-[3-(Difluoromethyl)-4-fluoro-phenyl]-3-pyridyl]methyl]-5-methyl-oxazolidin-2-one] was 14 nM. For `CC(C)C1CN(Cc2cncc(-c3ccc(F)c(C(F)F)c3)c2)C(=O)O1` (single isomer, unassigned) [Example 36, (R*)-3-[[5-[3-(Difluoromethyl)-4-fluoro-phenyl]-3-pyridyl]methyl]-5-isopropyl-oxazolidin-2-one], the half-inhibitory concentration (IC50) was 31 nM.

For the compound `CC(C)C1CN(Cc2cncc(-c3ccc(F)c(C(F)F)c3)c2)C(=O)O1` (single isomer, unassigned) [Example 37, (S*)-3-[[5-[3-(Difluoromethyl)-4-fluoro-phenyl]-3-pyridyl]methyl]-5-isopropyl-oxazolidin-2-one], the IC50 was determined as 50 nM. On to `O=C1OC(CN2CCOCC2)CN1Cc1cncc(-c2ccc(F)c(C(F)F)c2)c1` (single isomer, unassigned) [Example 40, (R*)-3-[[5-[3-(Difluoromethyl)-4-fluoro-phenyl]-3-pyridyl]methyl]-5-(morpholinomethyl)oxazolidin-2-one], for which the IC50 was found to be 205 nM. On to `O=C1OC(CN2CCOCC2)CN1Cc1cncc(-c2ccc(F)c(C(F)F)c2)c1` (single isomer, unassigned) [Example 41, (S*)-3-[[5-[3-(Difluoromethyl)-4-fluoro-phenyl]-3-pyridyl]methyl]-5-(morpholinomethyl)oxazolidin-2-one], for which the 50% inhibitory concentration (IC50) was 751 nM. Next, `Cc1ncc(-c2ccc(F)c(OC(F)F)c2)cc1CN1C(=O)OCC1C` (single isomer, unassigned) [Example 82, (R*)-3-[[5-[3-(Difluoromethoxy)-4-fluoro-phenyl]-2-methyl-3-pyridyl]methyl]-4-methyl-oxazolidin-2-one]: 66 nM; `Cc1ncc(-c2ccc(F)c(OC(F)F)c2)cc1CN1C(=O)OCC1C` (single isomer, unassigned) [Example 83, (S*)-3-[[5-[3-(Difluoromethoxy)-4-fluoro-phenyl]-2-methyl-3-pyridyl]methyl]-4-methyl-oxazolidin-2-one]: 30 nM; `Cc1ncc(-c2ccc(F)c(OC(F)F)c2)cc1CN1CC(C)OC1=O` (stereo in doubt) [Example 86, (5R)-3-[[5-[3-(Difluoromethoxy)-4-fluoro-phenyl]-2-methyl-3-pyridyl]methyl]-5-methyl-oxazolidin-2-one]: 20 nM. Consider `O=C1OCCN1Cc1cncc(-c2ccc(F)c(OC(F)F)c2)c1` [Example 2, 3-[[5-[3-(Difluoromethoxy)-4-fluoro-phenyl]-3-pyridyl]methyl]oxazolidin-2-one], for which the half-inhibitory concentration (IC50) turned out to be 12 nM. Next, `CC(C)[C@H]1COC(=O)N1Cc1cncc(-c2ccc(F)c(OC(F)F)c2)c1` [Example 3, (4S)-3-[[5-[3-(Difluoromethoxy)-4-fluoro-phenyl]-3-pyridyl]methyl]-4-isopropyl-oxazolidin-2-one]: 3010 nM; `O=C1OCc2ccccc2N1Cc1cncc(-c2ccc(F)c(OC(F)F)c2)c1` [Example 4, 1-[[5-[3-(Difluoromethoxy)-4-fluoro-phenyl]-3-pyridyl]methyl]-4H-3,1-benzoxazin-2-one]: 123 nM; `O=C1OC2(CC2)CN1Cc1cncc(-c2ccc(F)c(OC(F)F)c2)c1` [Example 9, 5-[[5-[3-(Difluoromethoxy)-4-fluoro-phenyl]-3-pyridyl]methyl]-7-oxa-5-azaspiro[2.4]heptan-6-one]: 12 nM.
